According to US9085578B2, “Heterocyclic compound” (Takeda Pharmaceutical Company Limited, priority 2012, dated 2015):

Biological target: T1, Tyk2 (Homo sapiens, UniProt P29597)
T1 construct: purchased Invitrogen
Assay: Tyk2 enzyme inhibition test (LANCE method)
Type: biochemical
Conditions: 1 uM test compound, ULight-JAK1 peptide substrate, well without enzyme = 100% inhibition, read-out: Tyk2 enzyme inhibitory activity (%, 1 uM)
Description: Tyk2 enzyme inhibitory activity of test compounds was measured by LANCE method (PerkinElmer). First, a test compound diluted with assay buffer (50 mM HEPES (pH=7.5), 10 mM MgCl2, 1 mM EGTA, 2 mM DTT, 0.01% Tween20, 0.01% BSA) was added to 384-well plate at 2 μL each. Then, a Tyk2 (Invitrogen) solution and a fluorescence-labeled peptide substrate (ULight-JAK1, PerkinElmer) solution diluted with assay buffer at 375 ng/mL and 300 nM, respectively were added at 2 μL each. Then, enzyme reaction was started by adding 2 μL each of ATP solution prepared with assay buffer at 30 μM. After the reaction at room temperature for 1 hr, Detection Buffer (PerkinElmer) prepared to be 20 mM EDTA, 4 nM europium-labeled anti-phosphotyrosine antibody (PerkinElmer) was added at 6 μL each. After standing at room temperature for 1 hr, fluorescence intensity (excitation wavelength 340 nm, fluorescence wavelength 665 nm, delay time 100 microsecond) was measured by a plate reader, Envision (PerkinElmer). The inhibitory activity of each compound was calculated as relative value where fluorescence intensity of a well without enzyme is considered as 100% inhibition.

T1 sequence (P29597 whole entry): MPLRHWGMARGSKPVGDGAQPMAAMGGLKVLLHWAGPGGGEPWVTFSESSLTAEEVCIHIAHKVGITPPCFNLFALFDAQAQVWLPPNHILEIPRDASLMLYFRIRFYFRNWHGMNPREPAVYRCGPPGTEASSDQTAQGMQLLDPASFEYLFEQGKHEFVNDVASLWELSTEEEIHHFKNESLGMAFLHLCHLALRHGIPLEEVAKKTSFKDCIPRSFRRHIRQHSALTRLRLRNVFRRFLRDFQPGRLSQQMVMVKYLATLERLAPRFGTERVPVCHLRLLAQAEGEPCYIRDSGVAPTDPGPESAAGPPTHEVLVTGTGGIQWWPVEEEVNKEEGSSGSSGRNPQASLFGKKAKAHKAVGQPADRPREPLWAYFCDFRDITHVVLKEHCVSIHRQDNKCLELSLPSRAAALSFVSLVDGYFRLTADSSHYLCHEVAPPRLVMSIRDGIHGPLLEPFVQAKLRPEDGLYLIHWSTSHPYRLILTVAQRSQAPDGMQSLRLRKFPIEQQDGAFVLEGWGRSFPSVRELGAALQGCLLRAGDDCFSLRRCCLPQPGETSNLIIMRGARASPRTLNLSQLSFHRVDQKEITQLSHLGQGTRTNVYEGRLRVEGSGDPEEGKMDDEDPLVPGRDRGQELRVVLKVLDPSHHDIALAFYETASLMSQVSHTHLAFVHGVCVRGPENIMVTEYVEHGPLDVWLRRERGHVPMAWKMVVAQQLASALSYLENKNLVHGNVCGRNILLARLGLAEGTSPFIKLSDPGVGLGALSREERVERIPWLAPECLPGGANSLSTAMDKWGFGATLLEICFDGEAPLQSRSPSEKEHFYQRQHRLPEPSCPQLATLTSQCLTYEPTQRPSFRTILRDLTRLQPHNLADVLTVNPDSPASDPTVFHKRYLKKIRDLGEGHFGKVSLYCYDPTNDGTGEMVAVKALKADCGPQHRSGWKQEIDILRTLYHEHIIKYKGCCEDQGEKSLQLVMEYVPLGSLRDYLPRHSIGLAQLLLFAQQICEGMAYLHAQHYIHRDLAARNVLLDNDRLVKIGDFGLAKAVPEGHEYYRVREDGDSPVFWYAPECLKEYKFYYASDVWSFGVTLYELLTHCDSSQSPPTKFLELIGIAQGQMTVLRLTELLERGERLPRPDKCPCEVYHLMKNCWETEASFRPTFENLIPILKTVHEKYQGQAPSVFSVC

Compared with N#Cc1cc2[nH]nc(N)c2c(=O)n1-c1ccccc1Cl [Example 16, 3-amino-5-(2-chlorophenyl)-4-oxo-4,5-dihydro-1H-pyrazolo[4,3-c]pyridine-6-carbonitrile], N#Cc1ccnc(-c2cn(-c3ccccc3Cl)c(=O)c3c(N)n[nH]c23)c1 [Example 28, 2-(3-amino-5-(2-chlorophenyl)-4-oxo-4,5-dihydro-1H-pyrazolo[4,3-c]pyridin-7-yl)isonicotinonitrile] is higher in inhibition at 1 µM: 82% for the first, 100% for the second.

CC(C)C(C)n1cc(-c2ccn(C)n2)c2[nH]nc(N)c2c1=O (stereo not drawn) [Example 13, 3-amino-5-(3-methylbutan-2-yl)-7-(1-methyl-1H-pyrazol-3-yl)-1,5-dihydro-4H-pyrazolo[4,3-c]pyridin-4-one] and CC1CCCCC1n1cc(-c2ccn(C)n2)c2[nH]nc(N)c2c1=O (stereo not drawn) [Example 14, 3-amino-5-(2-methylcyclohexyl)-7-(1-methyl-1H-pyrazol-3-yl)-1,5-dihydro-4H-pyrazolo[4,3-c]pyridin-4-one] are the same in inhibition at 1 µM: 98% for the first, 98% for the second.

Going from Nc1n[nH]c2c(-c3ccccn3)cn(-c3ccccc3Cl)c(=O)c12 [Example 24, 3-amino-5-(2-chlorophenyl)-7-(pyridin-2-yl)-1,5-dihydro-4H-pyrazolo[4,3-c]pyridin-4-one] to Cn1ccc(-c2cn(-c3ccccc3C(F)(F)F)c(=O)c3c(N)n[nH]c23)n1 [Example 43, 3-amino-7-(1-methyl-1H-pyrazol-3-yl)-5-(2-(trifluoromethyl)phenyl)-1,5-dihydro-4H-pyrazolo[4,3-c] pyridin-4-one], the inhibition at 1 µM falls from 98% to 92%.

First: Cc1ccccc1-n1cc(Br)c2[nH]nc(N)c2c1=O [Example 1, 3-amino-7-bromo-5-(2-methylphenyl)-1,5-dihydro-4H-pyrazolo[4,3-c]pyridin-4-one]
Second: Nc1n[nH]c2c(-c3csc(CN4CCCC4)c3)cn(-c3ccccc3Cl)c(=O)c12 [Example 38, 3-amino-5-(2-chlorophenyl)-7-(5-(pyrrolidin-1-ylmethyl)-3-thienyl)-1,5-dihydro-4H-pyrazolo[4,3-c]pyridin-4-one]
The inhibition at 1 µM of the first is lower: 40% for the first, 95% for the second.

Compound Cn1ccc(-c2cn(-c3c(F)cccc3F)c(=O)c3c(N)n[nH]c23)n1 [Example 15, 3-amino-5-(2,6-difluorophenyl)-7-(1-methyl-1H-pyrazol-3-yl)-1,5-dihydro-4H-pyrazolo[4,3-c]pyridin-4-one] has an inhibition at 1 µM of 100%.
